Test system: mantle cell lymphoma (MCL)
Assay: Clinical outcomes of MCL patients after brexucabtagene autoleucel by venetoclax bridging therapy
Type: in vivo, human
Description: FIGS. 13A-13H illustrate the finding that chromosomal alterations of BCL-2 in lymphoma patients associate with poor prognosis of CART therapy. FIG. 13A is a schematic of the strategy used herein to investigate whether genetic alteration of BCL-2 affects CART's anti-tumor clinical response. Pre-CART biopsies from patients with LCL were analyzed by fluorescence in situ hybridization (FISH) to search for BCL-2 chromosomal aberration. […] FIG. 13F is a schematic of the strategy used herein to investigate the impact of venetoclax bridging therapy on CART19's clinical response in MCL patients. […]
For the large B cell lymphoma cohort, clinical data were collected from patients diagnosed with DLBCL not otherwise specified (NOS), high-grade B cell lymphoma (HGBCL) NOS, HGBCL with MYC and BCL-2 and/or BCL-6 rearrangements, and transformed follicular lymphoma treated at the University of Pennsylvania using two commercial CART19 products (tisagenlecleucel or axicabtagene ciloleucel, UPCC44420) or enrolled in the CTL019 clinical trial NCT02030834. Only patients evaluated for chromosomal alterations involving the BCL-2 locus by interim FISH analysis were included in the current study. […] Disease response was determined according to Lugano classification. […]

CC1(C)CCC(CN2CCN(c3ccc(C(=O)NS(=O)(=O)c4ccc(NCC5CCOCC5)c([N+](=O)[O-])c4)c(Oc4cnc5[nH]ccc5c4)c3)CC2)=C(c2ccc(Cl)cc2)C1 [venetoclax]
complete response rate after brex-cel (bridging therapy including venetoclax (7/8)): 87.5%
patients in complete response at one year (venetoclax bridging therapy before brex-cel): 100%

Reference: patent US20240335539A1, “MODULATION OF BCL-2 TO ENHANCE CHIMERIC ANTIGEN RECEPTOR CANCER IMMUNOTHERAPY EFFICACY” (The Trustees of the University of Pennsylvania, priority 2021, published 2024)
